One may read the inhibition as how much of the control response was suppressed.

The structures appear in SMILES notation.

Consider 6 molecules from patent US6924366B2, “Recombinant hexose oxidase, a method of producing same and use of such enzyme” (Bioteknologisk Institut, priority 1995, dated 2005).

Assay [1] addresses T1, native hexose oxidase from Chondrus crispus (Chondrus crispus, UniProt P93762).
T1 construct: the native form isolated from Chondrus crispus; from tissue; host or cells: Chondrus crispus (red alga) fronds
T1 sequence (P93762 4-337 limits assumed): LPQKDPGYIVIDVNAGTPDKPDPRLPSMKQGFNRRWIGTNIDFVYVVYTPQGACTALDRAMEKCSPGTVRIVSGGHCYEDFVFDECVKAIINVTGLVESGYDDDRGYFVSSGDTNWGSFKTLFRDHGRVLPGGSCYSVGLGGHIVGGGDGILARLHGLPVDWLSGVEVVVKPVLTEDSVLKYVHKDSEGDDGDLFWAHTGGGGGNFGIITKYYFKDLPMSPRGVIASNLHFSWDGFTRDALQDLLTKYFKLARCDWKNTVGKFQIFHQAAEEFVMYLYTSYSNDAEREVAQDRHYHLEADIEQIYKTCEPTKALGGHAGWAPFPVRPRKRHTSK
T1 sequence (P93762 338-546 limits assumed): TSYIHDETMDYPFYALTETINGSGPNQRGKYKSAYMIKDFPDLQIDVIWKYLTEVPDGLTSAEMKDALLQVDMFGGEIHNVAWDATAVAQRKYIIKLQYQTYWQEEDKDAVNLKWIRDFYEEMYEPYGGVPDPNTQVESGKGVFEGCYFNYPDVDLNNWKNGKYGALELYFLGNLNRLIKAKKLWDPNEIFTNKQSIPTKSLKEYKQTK
In words: Substrate specificity of native hexose oxidase (o-dianisidine/peroxidase assay). To be noted: sugar at a final concentration of 0.1 M. It counts as biochemical. On the procedure: (§1) The procedure used was essentially as described by Sullivan and Ikawa, 1973. This assay is based on the principle that the hydrogen peroxide formed in the oxidation of the sugar in the presence of peroxidase reacts with the chromogenic substance, o-dianisidine to form a dye with absorbance at 402 nm.
(§2) The assay mixture consisted of 1-40 μl of enzyme sample and 850 μl of an assay solution containing 370 μl of 0.1 M sodium phosphate buffer, pH 7.0; 462 μl of 0.1 M D-glucose in 0.1 M sodium phosphate buffer, pH 7.0; 9 μl of horse radish peroxidase, 0.1 mg/ml in water (Sigma Chemicals, cat. no. P 6782 or Boehringer Mannheim, cat. no. 814 393); and 9 μl of o-dianisidine.2HCl, 3.0 mg/ml in water (3,3′-dimethoxybenzidine, Sigma Chemicals). After incubation at room temperature for 15 or 30 minutes the assay was stopped by addition of one drop of 37% HCl (Merck, p.a.). Samples of 100 μl were transferred from the assay tubes to the wells of a microtiter plate (NUNC, Denmark) and the absorbance at 410 nm was read on a Titertek Multiskan II PLUS plate reader (Labsystems/Flow Laboratories, Finland). To ensure that the observed activity was due to hexose oxidase—and not glucose oxidase—the assay was occasionally performed with D-galactose as the substrate instead of D-glucose.
(§3) The substrate specificity of recombinant hexose oxidase from Pichia pastoris and native hexose oxidase from Chondrus crispus was compared using a number of sugars at a final concentration of 0.1 M in the assay described above.

Assay [2] concerns the target T2, native hexose oxidase from Chondrus crispus (Chondrus crispus, UniProt P93762).
T2 sequence (P93762 1-546): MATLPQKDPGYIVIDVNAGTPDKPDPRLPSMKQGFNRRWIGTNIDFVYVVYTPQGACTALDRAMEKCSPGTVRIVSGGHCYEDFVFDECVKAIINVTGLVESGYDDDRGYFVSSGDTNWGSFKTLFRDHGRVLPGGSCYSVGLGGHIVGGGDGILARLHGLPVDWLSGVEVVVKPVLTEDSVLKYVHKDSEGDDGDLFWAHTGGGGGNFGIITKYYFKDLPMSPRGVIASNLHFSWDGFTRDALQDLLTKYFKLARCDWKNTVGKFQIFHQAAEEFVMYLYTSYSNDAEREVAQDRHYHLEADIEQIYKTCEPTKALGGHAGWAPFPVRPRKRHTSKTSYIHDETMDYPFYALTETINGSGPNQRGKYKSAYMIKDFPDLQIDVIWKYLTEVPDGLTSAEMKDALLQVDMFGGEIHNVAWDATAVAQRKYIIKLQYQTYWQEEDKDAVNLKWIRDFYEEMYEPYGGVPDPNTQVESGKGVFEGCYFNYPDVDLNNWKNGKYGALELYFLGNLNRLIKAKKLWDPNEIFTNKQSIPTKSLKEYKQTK
The conditions noted are these: literature data; cited from earlier work.

In assay [3] the target is T3, recombinant hexose oxidase from Pichia pastoris (Chondrus crispus, UniProt P93762).
T3 construct: the entire hexose oxidase gene was amplified and isolated from at least three independent PCR amplifications; made in house; host or cells: Pichia pastoris KM71 with plasmid pUPO153 (pPIC3 vector), intracellular
T3 sequence (P93762 4-337 limits assumed): T1 sequence (P93762 4-337 limits assumed)
T3 sequence (P93762 338-546 limits assumed): T1 sequence (P93762 338-546 limits assumed)
In words: Substrate specificity of recombinant hexose oxidase (o-dianisidine/peroxidase assay). Format: biochemical. To be noted: sugar at a final concentration of 0.1 M; recombinant hexose oxidase expressed in Pichia pastoris. On the procedure: as §1, §2, §3

Assay [4] concerns the target T3, recombinant hexose oxidase from Pichia pastoris. In words: Inhibition of recombinant hexose oxidase by sodium diethyldithiocarbamate. It counts as biochemical. The conditions noted are these: read-out: Inhibition (%), Recombinant enzyme. On the procedure:
as §1
as §2, with “D-glucose. […]” for “D-glucose.”

Assay [5] addresses T4, hexose oxidase from Chondrus crispus (Chondrus crispus, UniProt P93762).
T4 sequence (P93762 1-546): T2 sequence (P93762 1-546)
The conditions noted are these: reported by Sullivan and Ikawa (1973); cited from earlier work.

For assay [6], the target named is T1, native hexose oxidase from Chondrus crispus. Put plainly: Inhibition of native hexose oxidase by sodium diethyldithiocarbamate. Format: biochemical. The conditions noted are these: read-out: Inhibition (%), Native enzyme. The method, then:
as §1
as §2, with “D-glucose. […]” for “D-glucose.”

In the case of `O=C[C@H](O)[C@@H](O)[C@H](O[C@@H]1O[C@H](CO)[C@@H](O)[C@H](O)[C@H]1O)[C@H](O)CO` [Cellobiose], the “Relative rate, native enzyme, this work” value in assay [1] was 33. In assay [2], the “Relative rate, native enzyme, Sullivan and Ikawa, 1973” value (from here on “Relative rate, native enzyme … 1973”) was 32. Further, the “Relative rate, recombinant enzyme” value in assay [3] turned out to be 51.
`O=C[C@H](O)[C@@H](O)[C@@H](O)[C@H](O)CO` [D-Galactose]: the “Relative rate, native enzyme, this work” value in assay [1] turned out to be 75. Also, the “Relative rate, native enzyme … 1973” value in assay [2] is on record as 82. For the same molecule, in assay [3], the “Relative rate, recombinant enzyme” value was determined as 75.
Take `O=C[C@H](O)[C@@H](O)[C@H](O)[C@H](O)CO` [D-Glucose]: the “Relative rate, native enzyme, this work” value in assay [1] turned out to be 100. Besides, in assay [2], the “Relative rate, native enzyme … 1973” value is reported as 100. For the same molecule, the “Relative rate, recombinant enzyme” value in assay [3] is recorded as 100.
Consider `OC[C@H]1O[C@@H](O[C@H]2[C@H](O)[C@@H](O)C(O)O[C@@H]2CO)[C@H](O)[C@@H](O)[C@H]1O` (some centres unmarked) [Lactose], for which, in assay [1], the “Relative rate, native enzyme, this work” value is on record as 25. For the same molecule, the “Relative rate, native enzyme … 1973” value in assay [2] is recorded as 22. Also, the “Relative rate, recombinant enzyme” value in assay [3] is 38.
Turning to `OC[C@H]1O[C@H](O[C@H]2[C@H](O)[C@@H](O)[C@H](O)O[C@@H]2CO)[C@H](O)[C@@H](O)[C@@H]1O` [Maltose], in assay [1], the “Relative rate, native enzyme, this work” value is listed as 37. Also, the “Relative rate, native enzyme … 1973” value in assay [2] is reported as 40. The “Relative rate, recombinant enzyme” value in assay [3] is 57.
As to `CCN(CC)C(=S)[S-].[Na+]` [sodium diethyldithiocarbamate], the inhibition at 10 µM amounted to 39% in assay [4] (concentration of inhibitor 0.01 mM) and 41% in assay [6]. The inhibition at 100 µM is 96% in assay [4] (concentration of inhibitor 0.1 mM) and 95% in assay [6]. The “Inhibition of hexose oxidase (in words)” value in assay [5] is “strongly inhibited”.
